# Read-outs that look alike come from different tables or passages of the source. Where a SMILES comes first, the peptide text is derived from it.
# Tests used:
# [1] = Passage through the blood-brain barrier, confocal microscopy of brain tissue sections; assay type: in vivo, mice; settings: brain removed 3 hours after tail vein injection of SIWV-TAMRA
# [2] = mouse, in vivo
# [3] = system: U87MG cells; experiment: Intracellular uptake in U87MG cells by confocal microscope; assay type: cell-based, human; settings: cultured for 6 hours
# Experimental: (§1) The present inventor conducted the following experiments to confirm the intracellular uptake efficiency and cytotoxicity of SIWV-pSiNP(SN-38). Specifically, U87MG cells were seeded into 96-well plates at a density of 10,000 cells/well and cultured under the conditions of 5% CO2 and 37° C. for 24 hours. Thereafter, the cells were treated with 100 μL of each of the SN-38 drug alone, pSiNPs, pSiNP(SN-38) and SIWV-pSiNP(SN-38) nanoparticles at a concentration of 6.25, 12.5, 25, 50, and 100 μM, respectively, and cultured for 6 hours. After 6 hours, in order to confirm the intracellular uptake efficiency, cell nuclei were stained by treating the cells with a 4′,6-diamino-2-phenylindole (DAPI) reagent for 10 minutes, and cell membranes were then stained by treating the cells with a CellMask™ Deep Red Plasma membrane stain reagent for 1 hour. After staining, the cells were washed three times with PBS and treated with 4% paraformaldehyde for 20 minutes to fix the cells, and then the cells were observed under a confocal microscope.
# [4] = system: U87MG cells; experiment: Cytotoxicity in U87MG cells, WST-1 cell viability; assay type: cell-based, human; settings: 6 hours
# Experimental: as §1
# Meanwhile, after the cells were treated with SN-38 and each of the nanoparticles as described above and cultured for 6 hours, 10 μL of a 10% WST-1 reagent was added to each well and the cells were cultured for 2 hours. Thereafter, cell viability was analyzed by measuring the absorbance at 450 nm using a microplate reader, and the cell viability was analyzed using a relative percentage for U87MG cells not treated with nanoparticles.
# [5] = In vivo distribution of TAMRA-labeled SIWV peptide in healthy mice by fluorescence signal; settings: tail vein injection
smiles,measurement,setting,value
CC[C@H](C)[C@H](NC(=O)[C@@H](N)CO)C(=O)N[C@@H](Cc1c[nH]c2ccccc12)C(=O)N[C@H](C(=O)O)C(C)C [SIWV peptide] (H-SIWV-OH; N-terminus and C-terminus assumed),passage through the blood-brain barrier,[1],passed through the blood-brain barrier
same,time of excretion from the body,[2],24 h
"CCc1c2c(nc3ccc(O)cc13)-c1cc3c(c(=O)n1C2)COC(=O)[C@]3(O)CC [SN-38, 7-ethyl-10-hydroxy-camptothecin]",intracellular uptake,[3],intracellular uptake did not occur
same,cytotoxicity (toxicity of U87MG cells),[4]; 6.5 μM,12.4%
same,cytotoxicity,[4]; 100 μM,55.4%
same,concentration dependence of toxicity,"[4]; U87MG cells, 6.25 to 100 μM",increased toxicity as the treatment concentration was increased
"CN(C)c1ccc2c(-c3ccccc3C(=O)[O-])c3ccc(N(C)C)cc3[o+]c2c1 [TAMRA, tetramethylrhodamine]",time of excretion from the body,[5],≤ 2 h

# Source: patent US12128041B2, “Nanoparticles for delivering drug, whose surface is modified with peptide for targeting brain cancer, preparation method thereof and use thereof” (UNIVERSITY-INDUSTRY COOPERATION GROUP OF KYUNG HEE …, priority 2020, dated 2024)
